Measured values reported in US11608324B2, “Solid forms of fasoracetam” (The Children's Hospital of Philadelphia, priority 2018, dated 2023).

Legend:
[1] = Hygroscopicity (statement); assay type: physicochemical
[2] = Solubility curve in ethyl acetate (Crystal16); assay type: physicochemical; conditions: FIG. 10
Description: FIG. 7 is the x-ray powder diffraction of the R-fasoracetam monohydrate Form I starting material used in this Example 1, and FIG. 8 is the corresponding DSC thermogram of that starting material. A solubility curve was constructed for the cocrystal in ethyl acetate with the results plotted in FIG. 10 (from the data collected in Example 1) using a Crystal16 device from Technobis Crystallization Systems. The samples were created from the cocrystal without adding any additional water or other constituents. The samples were heated at a rate of 1°/15 minutes.

[3] = Thermogravimetric analysis (TGA), thermal stability; assay type: physicochemical
Description: TGA measurements were carried out on a METTLER TOLEDO TGA/SDTA 851e. Samples were placed in open aluminum oxide crucible. All experiments were performed under nitrogen flow.
A TGA plot can be found at FIG. 6. The sample was equilibrated at 30.0° C. for five minutes prior to ramping. A heating rate of 5° C. per minute was used from 30.0° C. to 350.0° C. No significant weight loss was observed until temperatures greater than 180° C. were recorded.

[4] = tested on: metabotropic glutamate receptor (mGluR), all classes; conditions: Hirouchi M, et al. (2000); WO2017/044491; cited from earlier work
[5] = subjects having a genetic alteration in an mGluR network gene; cited from earlier work

O=C1CC[C@H](C(=O)N2CCCCC2)N1 [R-fasoracetam anhydrate]
hygroscopicity [1]: hygroscopic

Nc1ccc(C(=O)O)cc1.O=C1CC[C@H](C(=O)N2CCCCC2)N1 [R-fasoracetam:PABA cocrystal]
solubility as compared with R-fasoracetam monohydrate Form I [2]: approximately three-fold lower | thermal stability by TGA, stable up to ([3]; TGA, FIG. 6): about 200 °C | temperature until which no significant weight loss was observed (TGA) ([3]; heating rate 5° C. per minute from 30.0° C. to 350.0° C.): greater than 180 °C

O=C1CC[C@H](C(=O)N2CCCCC2)N1 [fasoracetam]
activity against mGluRs in vitro [4]: nonselective activator against all classes of mGluRs | treatment outcome in ADHD [5]: successfully treated
